This assay addresses T1, BRCA1-associated RING domain protein 1 (Homo sapiens, UniProt Q99728).
T1 sequence (Q99728 whole entry): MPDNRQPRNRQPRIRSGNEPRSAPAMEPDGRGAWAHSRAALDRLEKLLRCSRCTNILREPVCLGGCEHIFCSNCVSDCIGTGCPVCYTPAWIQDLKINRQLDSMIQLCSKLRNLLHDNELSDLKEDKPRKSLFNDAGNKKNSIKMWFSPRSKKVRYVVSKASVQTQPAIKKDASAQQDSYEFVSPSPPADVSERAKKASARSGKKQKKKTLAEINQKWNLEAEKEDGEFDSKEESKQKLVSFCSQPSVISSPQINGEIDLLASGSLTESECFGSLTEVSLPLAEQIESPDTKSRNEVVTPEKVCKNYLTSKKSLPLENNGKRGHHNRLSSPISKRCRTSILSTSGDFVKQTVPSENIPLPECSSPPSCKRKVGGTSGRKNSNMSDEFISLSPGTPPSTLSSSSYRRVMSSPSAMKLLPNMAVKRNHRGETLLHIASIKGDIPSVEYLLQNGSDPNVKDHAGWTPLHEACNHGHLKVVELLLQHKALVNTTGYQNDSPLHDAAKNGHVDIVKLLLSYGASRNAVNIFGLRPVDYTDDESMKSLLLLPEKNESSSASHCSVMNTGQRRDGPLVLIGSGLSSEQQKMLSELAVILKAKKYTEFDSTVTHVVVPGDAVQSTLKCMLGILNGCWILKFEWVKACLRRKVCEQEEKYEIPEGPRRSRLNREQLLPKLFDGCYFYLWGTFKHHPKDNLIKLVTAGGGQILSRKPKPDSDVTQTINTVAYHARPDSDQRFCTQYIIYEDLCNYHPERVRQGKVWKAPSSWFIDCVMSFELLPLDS
Kind of assay: inhibition of Brca1/Bard1 split-luciferase complementation, dose response, counter-screen for Mdm2/MdmX interaction inhibitor project, cell-based, luminescence (AID 504669). Background: The purpose of a counterscreen is to sort out artefacts and off-target activity.

Molecules are shown by their SMILES.

One compound from BindingDB's records for doi:10.7270/Q2DZ06SS (Burnham Center For Chemical Genomics, 2011) can be followed below.

In general, IC50 refers to the concentration at which inhibition is half-maximal. High values mean weaker potency in that assay, low ones greater potency in that assay. For `Cc1cc(N=NC(C)c2ccccc2O)nc(-c2ccccc2O)n1` (stereo unspecified), the IC50 turned out to be 5.35 µM.
